According to ChEMBL document CHEMBL4689842, “EUbOPEN Chemogenomics Library wave 1” (2021):

What was measured:
HEK-293T = experiment: Incucyte cell viability with HEK293T; format: toxicity, cell-based; conditions: human, 10 µM, compound concentration 10 uM
U2OS = experiment: Incucyte cell viability with U2OS; format: toxicity, cell-based; conditions: human, 10 µM, compound concentration 10 uM
[1] = 0 h, replicate number 1, timepoint 0 hours
[2] = 0 h, replicate number 2, timepoint 0 hours
[3] = 6 h, replicate number 1, timepoint 6 hours
[4] = 12 h, replicate number 1, timepoint 12 hours
[5] = 18 h, replicate number 1, timepoint 18 hours
[6] = 24 h, replicate number 1, timepoint 24 hours
[7] = 6 h, replicate number 2, timepoint 6 hours
[8] = 18 h, replicate number 2, timepoint 18 hours
[9] = 12 h, replicate number 2, timepoint 12 hours
Also: filed as whole numbers so only -1 and 0 and 1 occur.

COC(=N)c1nc2ccc3ncnc(Nc4ccc(OC)cc4F)c3c2s1
Growth Rate (HEK-293T; [1]): 0 | Growth Rate (HEK-293T; [2]): 1 | Growth Rate (HEK-293T; [3]): 0 | Growth Rate (HEK-293T; [4]): 0 | Growth Rate (HEK-293T; [5]): 0 | Growth Rate (HEK-293T; [6]): 0 | Growth Rate (U2OS; [2]): 1 | Growth Rate (U2OS; [7]): 1 | Growth Rate (U2OS; [4]): 0 | Growth Rate (U2OS; [5]): 0 | Growth Rate (U2OS; [6]): 0

CNC(=O)c1ccc(Nc2nc(OC3CCCC3)c3c(-c4ccc5nc(C)oc5c4)c[nH]c3n2)c(OC)c1
Growth Rate (HEK-293T; [2]): 1 | Growth Rate (HEK-293T; [3]): 0 | Growth Rate (HEK-293T; [4]): 0 | Growth Rate (HEK-293T; [5]): 0 | Growth Rate (HEK-293T; [6]): 0 | Growth Rate (U2OS; [4]): 1 | Growth Rate (U2OS; [5]): 0 | Growth Rate (U2OS; [6]): 0

CCN1CCN(Cc2ccc(Nc3ncc(F)c(-c4cc(F)c5nc(C)n(C(C)C)c5c4)n3)nc2)CC1.CS(=O)(=O)O
Growth Rate (HEK-293T; [1]): 0 | Growth Rate (HEK-293T; [3]): 0 | Growth Rate (HEK-293T; [4]): 0 | Growth Rate (HEK-293T; [5]): 0 | Growth Rate (HEK-293T; [6]): 0 | Growth Rate (U2OS; [2]): 1 | Growth Rate (U2OS; [4]): 1 | Growth Rate (U2OS; [5]): 0 | Growth Rate (U2OS; [8]): 1 | Growth Rate (U2OS; [6]): 0

O=C(Nc1ccc(-c2ccnc(Nc3ccc(N4CCOCC4)cc3)n2)cc1)[C@@H]1CCCN1
Growth Rate (HEK-293T; [1]): 1 | Growth Rate (HEK-293T; [3]): 0 | Growth Rate (HEK-293T; [4]): 0 | Growth Rate (HEK-293T; [5]): 0 | Growth Rate (HEK-293T; [6]): 0 | Growth Rate (U2OS; [2]): 0 | Growth Rate (U2OS; [4]): 1 | Growth Rate (U2OS; [5]): 1 | Growth Rate (U2OS; [6]): 1

CCN(CC)S(=O)(=O)Nc1cccc(-c2ccc3c(NC(=O)C4CC4)n[nH]c3c2)c1
Growth Rate (HEK-293T; [1]): 0 | Growth Rate (HEK-293T; [3]): 0 | Growth Rate (HEK-293T; [4]): 0 | Growth Rate (HEK-293T; [5]): 0 | Growth Rate (HEK-293T; [6]): 0 | Growth Rate (U2OS; [1]): 0 | Growth Rate (U2OS; [3]): 0 | Growth Rate (U2OS; [4]): 0 | Growth Rate (U2OS; [5]): 0 | Growth Rate (U2OS; [6]): 0

CCc1cccc(CC)c1NC(=O)c1nn(C)c2c1CCc1cnc(Nc3ccc(N4CCN(C)CC4)cc3OC)nc1-2
Growth Rate (HEK-293T; [2]): 0 | Growth Rate (HEK-293T; [3]): 0 | Growth Rate (HEK-293T; [4]): 0 | Growth Rate (HEK-293T; [5]): 0 | Growth Rate (HEK-293T; [6]): 0 | Growth Rate (U2OS; [2]): 0 | Growth Rate (U2OS; [3]): 1 | Growth Rate (U2OS; [4]): 0 | Growth Rate (U2OS; [5]): 0 | Growth Rate (U2OS; [6]): 0

Cl.O=c1c2cccn2c2ccccc2n1CCCN1CCC(c2ccc(Cl)cc2)CC1
Growth Rate (HEK-293T; [1]): 0 | Growth Rate (HEK-293T; [3]): 0 | Growth Rate (HEK-293T; [4]): 0 | Growth Rate (HEK-293T; [5]): 0 | Growth Rate (HEK-293T; [6]): 0 | Growth Rate (U2OS; [2]): 0 | Growth Rate (U2OS; [9]): 1 | Growth Rate (U2OS; [5]): 1 | Growth Rate (U2OS; [6]): 1

Cl.O=C(c1ccc(Nc2nccc(-c3cc4ccccc4s3)n2)cc1)N1CCC(N2CCCC2)CC1
Growth Rate (HEK-293T; [3]): 0 | Growth Rate (HEK-293T; [4]): 0 | Growth Rate (HEK-293T; [5]): 0 | Growth Rate (HEK-293T; [6]): 0 | Growth Rate (U2OS; [2]): 0 | Growth Rate (U2OS; [4]): 0 | Growth Rate (U2OS; [5]): 0 | Growth Rate (U2OS; [6]): 0

Cc1ccc2nc(NCCN)c3ncc(C)n3c2c1.O=C(O)C(F)(F)F.O=C(O)C(F)(F)F
Growth Rate (HEK-293T; [1]): 0 | Growth Rate (HEK-293T; [2]): 1 | Growth Rate (HEK-293T; [3]): 0 | Growth Rate (HEK-293T; [4]): 0 | Growth Rate (HEK-293T; [5]): 0 | Growth Rate (HEK-293T; [6]): 0 | Growth Rate (U2OS; [1]): 0 | Growth Rate (U2OS; [3]): 0 | Growth Rate (U2OS; [4]): 0 | Growth Rate (U2OS; [5]): 0 | Growth Rate (U2OS; [6]): 0

NC(=O)c1cccc(-c2cc(Nc3ccc(OC(F)(F)F)cc3)ncn2)c1
Growth Rate (HEK-293T; [1]): 0 | Growth Rate (HEK-293T; [3]): 0 | Growth Rate (HEK-293T; [4]): 0 | Growth Rate (HEK-293T; [5]): 0 | Growth Rate (HEK-293T; [6]): 0 | Growth Rate (U2OS; [2]): 1 | Growth Rate (U2OS; [3]): 1 | Growth Rate (U2OS; [4]): 0 | Growth Rate (U2OS; [5]): 1 | Growth Rate (U2OS; [8]): 0 | Growth Rate (U2OS; [6]): 1 | Growth Rate (U2OS; 24 h, replicate number 2, timepoint 24 hours): 0

CN1C2CCC1CC(OC(c1ccc(F)cc1)c1ccc(F)cc1)C2.Cl (stereo not drawn)
Growth Rate (HEK-293T; [2]): 1 | Growth Rate (HEK-293T; [3]): 0 | Growth Rate (HEK-293T; [4]): 0 | Growth Rate (HEK-293T; [5]): 0 | Growth Rate (HEK-293T; [6]): 0 | Growth Rate (U2OS; [7]): 0 | Growth Rate (U2OS; [4]): 1 | Growth Rate (U2OS; [9]): 0 | Growth Rate (U2OS; [5]): 0 | Growth Rate (U2OS; [6]): 0

CCOC(=O)c1c(C)[nH]c2ccc3c(c12)CN1CCc2cc(OC)ccc2C1O3 (stereo not drawn)
Growth Rate (HEK-293T; [2]): 0 | Growth Rate (HEK-293T; [3]): 0 | Growth Rate (HEK-293T; [4]): 0 | Growth Rate (HEK-293T; [5]): 0 | Growth Rate (HEK-293T; [6]): 0 | Growth Rate (U2OS; [1]): 1 | Growth Rate (U2OS; [7]): 1 | Growth Rate (U2OS; [4]): 0 | Growth Rate (U2OS; [5]): 0 | Growth Rate (U2OS; [6]): 0
